Common to all, as to test: growth of human tumour cells (NCI), 48 h
Experiment [1] concerns EKVX NSCLC.
Experiment [2] relates to HOP-92 NSCLC.
Experiment [3] relates to MCF7 breast.
For experiment [4], the system named is HOP-62 NSCLC.
Experiment [5] has as its system SK-OV-3 ovarian.
Experiment [6] deals with HL-60(TB) leukemia.
In experiment [7] the test system is SK-MEL-5 melanoma.
Experiment [8] concerns NCI-H522 lung.
In experiment [9] the test system is LOX IMVI melanoma.
In experiment [10] the test system is IGROV1 ovarian.

The structures appear in SMILES notation.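 Tested at 5 concentrations; 48 h exposure; 96-well plates; endpoints linearly interpolated, else capped at highest concentration. Here, GI50 denotes the concentration required for 50% inhibition of growth. Definition used: TGI = concentration required for complete inhibition of growth.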

With `CN(C)c1ccc(Nc2c3ccccc3nc3cc(NC(=O)CCN4CCCC4)ccc23)cc1`, the GI50 in experiment [1] is 0.964 µM; in experiment [2], 0.379 µM; in experiment [3], 0.0711 µM; in experiment [4], 0.235 µM; in experiment [5] it was 0.413 µM; in experiment [6] it was 0.19 µM. The GI50 in experiment [7] was 1.04 µM; in experiment [8], 0.541 µM; in experiment [9], 0.21 µM; in experiment [10], 0.291 µM. Further, the TGI came out at 2.62 µM in experiment [1]; 2.14 µM in experiment [2]; 1.61 µM in experiment [3]; 1.56 µM in experiment [4]; 1.78 µM in [5]; 0.763 µM in experiment [6]. The TGI was 2.32 µM in experiment [7], 2.21 µM in experiment [8], 1.46 µM in [9] and 1.83 µM in experiment [10].

On to `O=C1/C(=C/c2ccc(Cl)cc2)CCC1CN1CCOCC1` (stereo not given), for which the TGI in [1] was 30.7 µM; in experiment [2], 16.1 µM; in experiment [3], 21 µM; in experiment [4] it was 35.1 µM; in experiment [5], 31.9 µM; in experiment [6], 3.8 µM. In addition, the TGI in [7] stood at 26.1 µM; in experiment [8], 5.15 µM; in experiment [9], 5.24 µM; in experiment [10], 10.5 µM.

Turning to `C[C@@H](Oc1cc(-n2cnc3ccc(OCC4CCN(C)CC4)cc32)sc1C(N)=O)c1ccccc1Cl`, the GI50 in experiment [1] is 0.158 µM; in [2], 0.156 µM; in experiment [3], 0.0123 µM; in experiment [4] it was 0.0977 µM; in experiment [5], 0.101 µM; in experiment [6], 0.044 µM. Also, the GI50 was 0.0929 µM in [7], 0.0382 µM in experiment [8], 0.0926 µM in [9] and 0.129 µM in experiment [10]. Besides, the TGI was 4.96 µM in [1]; 2.51 µM in experiment [2]; 3.68 µM in experiment [3]; 3.55 µM in experiment [4]; 2.93 µM in experiment [5]; 0.543 µM in [6]. The TGI stood at 1.26 µM in experiment [7], 0.147 µM in [8], 3.6 µM in experiment [9] and 4.9 µM in [10].

With `COc1cc(OC)c(F)c(COc2cnc(Nc3cnn(CCO)c3)nc2)c1F`, the GI50 in experiment [1] is 1.94 µM; in [2], 0.767 µM; in [3] it was 0.417 µM; in experiment [4] it was 0.423 µM; in [5], 0.845 µM; in experiment [6], 0.245 µM. Further, the GI50 in [7] was 0.501 µM; in experiment [8], 0.341 µM; in experiment [9] it was 0.526 µM; in [10], 0.595 µM. The TGI in [1] is greater than 100 µM; in experiment [2], 5.4 µM; in experiment [3], greater than 100 µM; in experiment [4], 4.58 µM; in [5], 5.67 µM; in experiment [6], 0.702 µM. Moreover, the TGI in [7] was 2.71 µM; in [8], 1.65 µM; in [9], greater than 22.6 µM; in experiment [10] it was greater than 100 µM.

`CN(C)CC1CCCCCC(Br)C1=O` (stereo not given): the TGI is 30.8 µM in experiment [1]; 22.2 µM in experiment [2]; 12.7 µM in experiment [3]; 47.3 µM in experiment [4]; greater than 100 µM in experiment [5]; 30.1 µM in [6]. For the same compound, the TGI in experiment [7] is 30.3 µM; in experiment [8], 8.72 µM; in experiment [9], 29.8 µM; in [10] it was greater than 69.4 µM.

`COc1cnc2c(c1)C(=O)c1c-2n(CCCNCCN2CCOCC2)c(=O)c2cc([N+](=O)[O-])ccc12`: the GI50 in experiment [1] is 0.446 µM; in experiment [2], 0.866 µM; in [3], 0.0323 µM; in [4], 0.15 µM; in [5] it was 0.142 µM; in [6] it was 0.104 µM. Moreover, the GI50 in experiment [7] was 0.263 µM; in [8], 0.0787 µM; in [9], 0.0413 µM; in experiment [10] it was 0.422 µM. For the same compound, the TGI amounted to 3.5 µM in experiment [1]; 22.8 µM in experiment [2]; 10.2 µM in experiment [3]; 1.08 µM in experiment [4]; 1.62 µM in experiment [5]; 0.818 µM in experiment [6]. The TGI in [7] came out at 1.26 µM; in experiment [8], 1.38 µM; in [9], 0.216 µM; in [10], 6.76 µM.

As to `CN(C)c1ccc2cc3ccc(N(C)C)cc3nc2c1`, the TGI in experiment [1] was found to be 7.21 µM; in experiment [2], 20 µM; in [3] it was 11.5 µM; in experiment [4], 7.18 µM; in experiment [5] it was 13.9 µM; in [6], 3.66 µM. The TGI in experiment [7] is 8.34 µM; in experiment [8], 7.56 µM; in experiment [9] it was 3.63 µM; in experiment [10], 17.3 µM.

Regarding `Nc1nc(-c2ccc(Cl)cc2)cc(-c2ccc(Cl)cc2)c1-c1nc2ccccc2o1`, the GI50 was 16.3 µM in [1]; 6.24 µM in experiment [2]; 10.6 µM in experiment [3]; 13 µM in experiment [4]; 22.4 µM in [5]; 17.9 µM in experiment [6]. For the same compound, the GI50 in experiment [7] is 15.4 µM; in experiment [8], 15 µM; in [9], 18.7 µM; in experiment [10] it was 16.1 µM. The TGI in experiment [1] was 31.4 µM; in experiment [2], 21.2 µM; in experiment [3], 35.7 µM; in [4], 27.1 µM; in experiment [5], 41 µM; in experiment [6], 37.2 µM. For the same compound, the TGI in experiment [7] was 29.9 µM; in [8], 30.5 µM; in experiment [9], 36.5 µM; in experiment [10] it was 34.3 µM.

For `O=C1/C(=C/c2ccc(Cl)cc2)CN(C(=O)CCN2CCC(=NO)CC2)C/C1=C\c1ccc(Cl)cc1`, the GI50 in experiment [1] was 1.62 µM; in experiment [2], 1.64 µM; in experiment [3], 0.284 µM; in experiment [4], 0.894 µM; in [5], 1.94 µM; in [6] it was 1.37 µM. The GI50 in experiment [7] was 1.66 µM; in [8], 0.731 µM; in experiment [9], 0.224 µM; in experiment [10], 0.807 µM. For the same compound, the TGI in experiment [1] amounted to 3.45 µM; in [2] it was 3.54 µM; in experiment [3] it was 1.59 µM; in experiment [4], 2.41 µM; in experiment [5], 4.21 µM; in experiment [6] it was 4.9 µM. Besides, the TGI in experiment [7] stood at 3.1 µM; in experiment [8] it was 2.29 µM; in experiment [9], 0.57 µM; in [10], 2.05 µM.

As for `Cc1ccc(-c2cc(-c3ccc(C)cc3)nc(N3CCN(CCNc4ccnc5cc(Cl)ccc45)CC3)n2)cc1`, the GI50 in experiment [1] is 5.65 µM; in [2], 0.963 µM; in experiment [3], 2.11 µM; in [4] it was 1.58 µM; in experiment [5], 5.49 µM; in experiment [6] it was 2.42 µM. The GI50 is 6.65 µM in [7], 5.65 µM in experiment [8], 1.82 µM in experiment [9] and 3.08 µM in [10]. The TGI in experiment [1] stood at 20 µM; in [2] it was 4.25 µM; in experiment [3], 13.4 µM; in experiment [4] it was 6.52 µM; in experiment [5] it was 14.2 µM; in [6] it was 11.6 µM. Further, the TGI was 18.3 µM in [7], 22 µM in [8], 6.07 µM in experiment [9] and 12.3 µM in experiment [10].

Regarding `O=C(c1ccco1)c1nc2cc(C(F)(F)F)ccc2[n+]([O-])c1C(F)(F)F`, the GI50 in experiment [1] is 34 µM; in [2] it was 36.7 µM; in experiment [3] it was 6.57 µM; in experiment [4], 71.7 µM; in experiment [5] it was greater than 100 µM; in [6], 78.1 µM. For the same compound, the GI50 was 33.3 µM in experiment [7], 34.1 µM in [8], 40.1 µM in experiment [9] and 34.9 µM in experiment [10]. In addition, the TGI in experiment [1], in experiment [2], in [3], in experiment [4], in [5] and in experiment [6] was greater than 100 µM each time. Also, the TGI in [7], in experiment [8], in experiment [9] and in experiment [10] was greater than 100 µM throughout.

`CC[C@H]1CN(C)[C@H]2Cc3c([nH]c4ccccc34)C(=O)C[C@H]1C2C(=O)OC` (stereo not given in full): the TGI in experiment [1], in experiment [2], in [3], in experiment [4], in experiment [5] and in experiment [6] was greater than 100 µM in each case. The TGI in experiment [7], in experiment [8], in [9] and in experiment [10] was greater than 100 µM throughout.

For the origin of these results see PubChem BioAssay (NCI).
